Data reported in patent US20040077601A1, “Methods and compositions relating to isoleucine boroproline compounds” (Point Therapeutics, Inc., priority 2002, published 2004).

Experiments:
serum DPP-IV = serum DPP-IV (Mus musculus, UniProt P28843); assay: Serum DPP-IV activity in mice two hours after administration (indicator of bioavailability); assay type: in vivo; conditions: 0.2-, 2.0-, 20-, 200-μg doses, subcutaneous injection vs oral gavage, serum two hours later
chemokine KC = assay: Serum levels of the chemokine KC by ELISA in mice after administration
WEHI 164 tumor cells = assay: WEHI 164 mouse tumor model (subcutaneous inoculation of 4×10^6 tumor cells); assay type: in vivo, mice; conditions: for Tumor sizes, subcutaneous compared to oral: day 20; for Tumor sizes (mean tumor volumes) on day 20 versus saline control: all 3 doses, twice daily day 2 to day 19, n=10; for Incidence of tumor rejection (%): recorded on day 20
Protocol: FIG. 2. Comparison of the anti-tumor activity of Ile-boroPro administered orally or by subcutaneous injection in the WEHI 164 mouse tumor model. Mice were inoculated subcutaneously with 4×10^6 tumor cells and administered Ile-boroPro twice daily from day 2 to day 19 after tumor inoculation, either by oral gavage (open bars) or subcutaneous injection (solid bars). Control mice received saline (hatched bar). The data represent mean tumor volumes±SEM (n=10) were recorded on day 20.
Mice were inoculated subcutaneously with 4×10^6 WEHI 164 tumor cells and administered 2-, 5- or 10-μg doses of Ile-boroPro twice daily from day 2 to […] after tumor inoculation, either by oral gavage or subcutaneous injection. Control mice received saline. […] The greater efficacy of subcutaneous administration was also reflected in the incidence of tumor rejection in mice receiving treatment with the various doses of Ile-boroPro (Table 2). […] It should be noted that tumor rejection was never observed in mice inoculated with WEHI 164 and treated with saline.

Chain of serum DPP-IV (P28843 37-760 limits assumed): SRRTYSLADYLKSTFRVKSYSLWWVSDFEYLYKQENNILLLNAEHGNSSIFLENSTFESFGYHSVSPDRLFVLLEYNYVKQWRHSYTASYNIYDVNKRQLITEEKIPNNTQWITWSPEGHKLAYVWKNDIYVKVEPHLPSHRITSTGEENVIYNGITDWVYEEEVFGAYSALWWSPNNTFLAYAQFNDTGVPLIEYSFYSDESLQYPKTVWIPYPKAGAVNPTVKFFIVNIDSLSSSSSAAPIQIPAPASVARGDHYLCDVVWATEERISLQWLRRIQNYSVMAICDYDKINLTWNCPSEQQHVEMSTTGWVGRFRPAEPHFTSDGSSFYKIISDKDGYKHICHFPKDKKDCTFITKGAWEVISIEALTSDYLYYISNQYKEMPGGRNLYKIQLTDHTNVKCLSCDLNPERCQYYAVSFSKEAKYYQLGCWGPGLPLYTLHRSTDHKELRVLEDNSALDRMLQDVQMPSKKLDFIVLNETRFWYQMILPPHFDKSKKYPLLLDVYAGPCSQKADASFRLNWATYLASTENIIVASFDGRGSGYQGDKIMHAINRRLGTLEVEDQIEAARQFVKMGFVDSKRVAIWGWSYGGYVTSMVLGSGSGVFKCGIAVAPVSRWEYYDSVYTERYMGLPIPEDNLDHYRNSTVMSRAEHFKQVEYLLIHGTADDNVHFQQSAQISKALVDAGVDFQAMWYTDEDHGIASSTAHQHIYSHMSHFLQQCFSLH

CCC(C)C(N)C(=O)N1CCCC1B(O)O (stereo not shown) [Ile-boroPro]
Bioavailability judged from dose response of inhibition of serum DPP-IV, subcutaneous versus oral (serum DPP-IV): more bioavailable
Time of maximal increases in serum KC levels after administration (chemokine KC): 2 h
Suppression of tumor growth, subcutaneous versus oral administration (tumor volumes on day 20) (WEHI 164 tumor cells; 2-, 5- or 10-μg doses twice daily): more effective than oral administration in suppressing tumor growth
Tumor sizes, subcutaneous compared to oral (WEHI 164 tumor cells; 2-μg dose twice daily, P<0.0005): significantly smaller
Tumor sizes, subcutaneous compared to oral (WEHI 164 tumor cells; 5-μg dose twice daily, P<0.005): significantly smaller
Tumor sizes (mean tumor volumes) on day 20 versus saline control (WEHI 164 tumor cells; oral gavage, P<0.05): significant reduction in tumor sizes
Incidence of tumor rejection (%) (WEHI 164 tumor cells; oral, 10 μg twice daily day 2 to day 19, 2 separate experiments): caused tumor rejection
Tumor sizes (mean tumor volumes) on day 20 versus saline control (WEHI 164 tumor cells; subcutaneous injection, P<0.00005): significant reduction in tumor sizes
Incidence of tumor rejection (%) (WEHI 164 tumor cells; subcutaneous, 2 μg twice daily day 2 to day 19, one experiment): 60%
Incidence of tumor rejection (%) (WEHI 164 tumor cells; subcutaneous, 5 μg twice daily day 2 to day 19, one experiment): 70%
